Read-outs that look alike come from different tables or passages of the source.
Legend:
[1] = test system: MCF7 CSCs; assay: 3D-mammosphere formation assay; assay type: cell-based, human; details: for IC50: 5 days, non-adherent conditions, read-out: IC50 for inhibiting 3D anchorage-independent propagation (mammosphere formation)
Experimental: For the 3D-Mammosphere Assay, a single cell suspension of MCF7 cells was prepared using enzymatic (lx Trypsin-EDTA, Sigma Aldrich) and manual disaggregation (25-gauge needle). Cells were then plated at a density of 500 cells/cm^2 in mammosphere medium (DMEM-F12/B27/EGF (20-ng/ml)/PenStrep) in non-adherent conditions, in culture dishes coated with (2-hydroxyethylmethacrylate) (poly-HEMA, Sigma). Cells were grown for 5 days and maintained in a humidified incubator at 37° C. at an atmospheric pressure in 5% (v/v) carbon dioxide/air. After 5 days in culture, spheres>50 μm were counted using an eye-piece graticule, and the percentage of cells plated which formed spheres was calculated and is referred to as percent mammosphere formation, normalized to vehicle-alone treated controls. Mammosphere assays were performed in triplicate and repeated three times independently.

[2] = test system: Staphylococcus aureus (ATCC 29213); assay: Bacterial growth assay (broth microdilution, resazurin); assay type: cell-based; details: S. aureus, Gram-positive, 100-0.78 μM
Experimental: (§1) Bacterial Growth Assays: Briefly, antibiotic activity was assessed using standard assay systems. The antibiotic activity of Doxycycline analogues was determined experimentally, using Resazurin (R7017; Sigma-Aldrich, Inc.) as a probe, in a 96-well plate format, using standard strains of E. coli and S. aureus. The minimum inhibitory concentration (MIC) for the studied compounds was determined using the broth microdilution method, the reference susceptibility test for rapidly growing aerobic or facultative microorganism. The assays were performed according to the Clinical and Laboratory Standards Institute (CLSI) guidelines. The test compounds and positive control (doxycycline, Sigma Aldrich #D1822) stock solutions were prepared at 25 mM in DMSO and serially diluted (2-fold dilution from 200-1.56 tiM) in cation adjusted Mueller Hinton Broth (MHB, Sigma Aldrich #90922) in 96 well transparent plates (VWR #734-2781) into a final volume of 50 μL/well. Staphylococcus aureus (ATCC 29213) and E. coli (ATCC 25922) cultures were grown overnight at 37° C. in Mueller Hinton Agar (MHA, Sigma Aldrich #70191). A single colony of each strain was then grown overnight at 37° C. in MHB until OD600˜0.6-0.8 and further diluted into MHB to a concentration of […] colony forming units (CFU)/mL, which was equivalent to an OD600˜0.01. Then, 50 μL of the diluted inoculums was transferred to the wells of the previously prepared 96-well plates containing the test compounds, negative control (1% DMSO in MHB) and positive control (doxycycline). Final wells volume was 100 μL, final concentrations for the testing compounds were between 100-0.78 μM and final microorganism concentration was 5×10^5 CFU/mL. Subsequently, 10 uL of one negative control well was plated in a petri dish containing MHA to check CFU and the purity of the cultures. The plates were incubated at 37° C. for 24 h after which 20 tit of resazurin solution (0.2 mg/mL) was added to the wells followed by 1 h30 min incubation at 37° C. The OD570 and OD600 were measured in a microplate reader (BMG FLUOstar Omega). […] MIC values were determined by three independent experiments.

[3] = test system: E. coli (ATCC 25922); assay: as above; assay type: cell-based, Escherichia coli; details: Gram-negative, 100-0.78 μM
Experimental: as §1

[4] = test system: MCF7 cells; assay: Cell proliferation, xCELLigence RTCA; assay type: cell-based, human; details: MCF7 2D-monolayers, relative to control (no treatment)
Experimental: Cell Proliferation: Briefly, MCF7 cells or hTERT-BJ1 fibroblasts were seeded in each well (10,000 cells/well) and employed to assess the efficacy of Doxycycline and Doxy-Myr, using RTCA (real-time cell analysis), via the measurement of cell-induced electrical impedance plate (Acea Biosciences Inc.). This approach allows the quantification of the onset and kinetics of the cellular response. Experiments were repeated several times independently, using quadruplicate samples for each condition.

[5] = test system: CSC burden in early breast cancer patients; details: oral 200 mg/day for 14 days; cited from earlier work
[6] = test system: normal human fibroblasts (hTERT-BJ1); assay: Cell viability (SRB) assay, normal fibroblasts 2D-monolayers; assay type: cell-based; details: hTERT-BJ1 2D-monolayers, 3 days, 5 to 20 μM
Experimental: (§2) Cell Viability Assay: The Sulphorhodamine (SRB) assay is based on the measurement of cellular protein content. After treatment for 72 h in 96-well plates, (8,000 cells/well), cells were fixed with 10% trichloroacetic acid (TCA) for 1 hour in the cold room, and were dried overnight at room temperature. Then, cells were incubated with SRB for 15 min, washed twice with 1% acetic acid, and air dried for at least 1 hour. Finally, the protein-bound dye was dissolved in a 10 mM Tris, pH 8.8, solution and read using the plate reader at 540-nm.

[7] = test system: MCF7 cells; assay: Cell viability (SRB) assay, MCF7 2D-monolayers; assay type: cell-based, human; details: 3 days, 5 to 20 μM
Experimental: as §2

[8] = test system: chick embryo; assay: CAM assay, embryo tolerability / toxicity; assay type: in vivo; details: for Dead / Alive: number of embryos
Experimental: a) Preparation of Chicken Embryos. […] At that moment (E9), the chorioallantoic membrane (CAM) was dropped down by drilling a small hole through the eggshell into the air sac, and a 1 cm^2 window was cut in the eggshell above the CAM.
e) Embryo Tolerability Assay. Before each administration, the treatment tolerability was evaluated by scoring the number of dead embryos.

[9] = test system: MCF7 cells; assay: Cell cycle analysis (FACS); assay type: cell-based, human; details: MCF7 2D-monolayers, 72 hours, 10 μM
Experimental: Cell Cycle Analysis: Performed on MCF7 cells treated with Doxycycline, Doxy-Myr or vehicle-alone. Briefly, after trypsinization, the re-suspended cells were incubated with 10 ng/ml of Hoechst solution (Thermo Fisher Scientific) for 40 min at 37° C. under dark conditions. Following a 40 min period, the cells were washed and re-suspended in PBS Ca/Mg for acquisition on the Attune NxT flow cytometer (Thermo Scientific). 10,000 events per condition were analyzed. Gated cells were manually-categorized into cell-cycle stages.

SMILES | IC50 ([1]; Homo sapiens, MCF7, 120 h) [µM] | antibiotic activity (growth inhibition) [2] | antibiotic activity (growth inhibition) [3] | effect on proliferation [4] | effect on cell viability [6] | effect on cell viability [7] | % Dead ([8]; 0.125 mM) [%] | Dead ([8]; 0.125 mM) | % Dead ([8]; 0.250 mM) [%] | Dead ([8]; 0.250 mM) | other results
CCCCCCCCCCCC(=O)Nc1ccc2c(c1O)C(=O)C1=C(O)[C@]3(O)C(=O)C(C(N)=O)=C(O)[C@@H](N(C)C)C3[C@@H](O)C1[C@H]2C (stereo partly drawn) [Doxy-Laur, (4S,5S,6R,12aS)-4-(dimethylamino)-9-(dodecanoylamino)-3,5,10,12,12a-pentahydroxy-6-methyl-1,11-dioxo-4a,5,5a,6-tetrahydro-4H-tetracene-2-carboxamide] | 5.8 | did not show any antibiotic activity | did not show any antibiotic activity |  |  |  |  |  |  |  | 
C[C@H]1c2cccc(O)c2C(=O)C2=C(O)[C@]3(O)C(=O)C(C(N)=O)=C(O)[C@@H](N(C)C)C3[C@@H](O)C21 (stereo partly drawn) [Doxycycline, (4S,5 S,6R,12aS)-4-(dimethylamino)-3,5,10,12,12a-pentahydroxy-6-methyl-1,11-dioxo-4a,5,5 a,6-tetrahydro-4H-tetracene-2-carboxamide] |  | potently and effectively inhibits the growth | potently and effectively inhibits the growth | did not inhibit the proliferation | no appreciable effects on cell viability | no appreciable effects on cell viability | 15.38 | 2 | 23.08 | 3 | positive response rate [5]: ~90%; embryo toxicity ([8]; in vivo): little-to-no embryo toxicity
CCCCCCCCCCCCCCCC(=O)Nc1ccc2c(c1O)C(=O)C1=C(O)[C@]3(O)C(=O)C(C(N)=O)=C(O)[C@@H](N(C)C)C3[C@@H](O)C1[C@H]2C (stereo partly drawn) [Doxy-Pal, (4S,5S,6R,12 aS)-4-(dimethylamino)-9-(hexadecanoylamino)-3,5,10,12,12a-pentahydroxy-6-methyl-1,11-dioxo-4a,5,5 a,6-tetrahydro-4H-tetracene-2-carboxamide] | 10.4 | did not show any antibiotic activity | did not show any antibiotic activity |  |  |  |  |  |  |  | 
C[C@H]1c2ccc(NC(=O)CCCCC[P+](c3ccccc3)(c3ccccc3)c3ccccc3)c(O)c2C(=O)C2=C(O)[C@]3(O)C(=O)C(C(N)=O)=C(O)[C@@H](N(C)C)C3[C@@H](O)C21.C[C@H]1c2ccc(NC(=O)CCCCC[P+](c3ccccc3)(c3ccccc3)c3ccccc3)c(O)c2C(=O)C2=C(O)[C@]3(O)C(=O)C(C(N)=O)=C(O)[C@@H](N(C)C)C3[C@@H](O)C21.O=C([O-])C(=O)[O-] (stereo partly shown) [Doxy-TPP] |  |  |  |  |  |  |  |  |  |  | inhibitory potency compared with Doxycycline [1]: not more potent that Doxycycline
CCCCCCCCCCCCCC(=O)Nc1ccc2c(c1O)C(=O)C1=C(O)[C@]3(O)C(=O)C(C(N)=O)=C(O)[C@@H](N(C)C)C3[C@@H](O)C1[C@H]2C (stereo partly drawn) [Doxy-Myr, (4S,5S,6R,12aS)-4-(dimethylamino)-3,5,10,12,12a-pentahydroxy-6-methyl-1,11-dioxo-9-(tetradecanoylamino)-4a,5,5a,6-tetrahydro-4H-tetracene-2-carboxamide] |  | did not show any antibiotic activity | did not show any antibiotic activity | did not inhibit the proliferation | no appreciable effects on cell viability | no appreciable effects on cell viability | 21.43 | 3 | 7.69 | 1 | IC50 [1]: 3.46 µM; effect on cell cycle progression [9]: did not have any significant effects on reducing cell cycle progression; % Alive ([8]; 0.125 mM): 78.57%; Alive ([8]; 0.125 mM): 11; % Alive ([8]; 0.250 mM): 92.31%; Alive ([8]; 0.250 mM): 12; embryo toxicity ([8]; CAM assay): little-to-no embryo toxicity
